{
  "source": "patent US12115179B2",
  "about": "“Pharmaceutical composition, methods for treating and uses thereof” (Boehringer Ingelheim International GmbH, priority 2009, dated 2024)",
  "origin": "cited, not measured here",
  "conditions": "metformin on its own, in the diabetic",
  "data": [
    {"smiles": "CN(C)C(=N)N=C(N)N", "note": "[Met, metformin]", "values": [
      {"measurement": "average improvement in the HbA1c value", "value": "1.0-1.5%"}
    ]}
  ]
}
